Source: EPA's ToxRefDB 2

How the values were obtained:
rat [1] = conditions: Subchronic dermal toxicity, fischer, Topical, dose end: 13 week, group: systemic
rat [2] = conditions: Multigenerational reproductive toxicity study, sprague dawley, Oral, Feed, dose end: 2 generation
mouse [3] = conditions: Carcinogenicity; b6c3f1; Oral; Feed; dose end: 2 year; group: systemic; systemic / organ weight / kidney / nos + systemic / pathology microscopic / kidney / vacuolization + systemic / organ weight / kidney / …
rat [4] = conditions: Subchronic oral toxicity in rodents, wistar, Feed, dose end: 90 day, group: systemic
dog [5] = conditions: Chronic toxicity; beagle; Oral; Feed; dose end: 52 week; group: systemic; systemic / hematology / erythrocyte (rbc) count differential / erythrocyte (rbc) + systemic / hematology / heinz body / heinz body + …
dog [6] = conditions: Subchronic oral toxicity in nonrodent, beagle, Feed, dose end: 90 day, group: systemic
rat [7] = conditions: Combined chronic toxicity/carcinogenicity, wistar, Oral, Feed, dose end: 24 month, group: systemic
rabbit = conditions: Prenatal developmental toxicity study, other, Oral, Gavage/Intubation, dose end: 18 GD
mouse [8] = conditions: Subchronic oral toxicity in rodents, b6c3f1, Feed, dose end: 14 week, group: systemic, systemic / clinical chemistry / bilirubin / total bilirubin + systemic / clinical chemistry / cholesterol / cholesterol + systemic / …
rat [9] = conditions: Combined chronic toxicity/carcinogenicity; fischer; Oral; Feed; dose end: 104 week; group: systemic; systemic / organ weight / skeletal muscle / absolute + systemic / organ weight / skeletal muscle / relative to body weight + systemic / …
mouse [10] = conditions: Combined chronic toxicity/carcinogenicity; b6c3f1; Oral; Feed; dose end: 2 year; group: systemic; systemic / in life observation / body weight / body weight
mouse [11] = conditions: Subchronic oral toxicity in rodents, b6c3f1, Feed, dose end: 13 week, group: systemic
rat [12] = conditions: Prenatal developmental toxicity study, sprague dawley, Oral, Gavage/Intubation, dose end: 15 GD
rat [13] = conditions: Prenatal developmental toxicity study; wistar; Oral; Feed; dose end: 15 GD; group: maternal; systemic / in life observation / body weight / body weight gain + systemic / in life observation / food consumption / food consumption
rat [14] = conditions: Subchronic oral toxicity in rodents, fischer, Feed, dose end: 13 week, group: systemic
rat [15] = conditions: Subchronic oral toxicity in rodents, sprague dawley, Feed, dose end: 13 week, group: systemic, systemic / in life observation / body weight / body weight + systemic / in life observation / body weight / body weight gain + systemic / in…
rat [16] = conditions: Combined chronic toxicity/carcinogenicity, fischer, Oral, Feed, dose end: 2 year, group: systemic
dog [17] = conditions: Chronic toxicity, beagle, Oral, [Not Specified], dose end: 52 week, group: systemic
rat [18] = conditions: Combined chronic toxicity/carcinogenicity; sprague dawley; Oral; Feed; dose end: 104 week; group: systemic; systemic / pathology microscopic / adrenal gland / hypertrophy + systemic / pathology microscopic / skeletal muscle / malformation + …
rat [19] = conditions: Prenatal developmental toxicity study, sprague dawley, Oral, Gavage/Intubation, dose end: 15 GD; remark: listed apart in the source
mouse [20] = conditions: Carcinogenicity, cd1, Oral, Feed, dose end: 80 week, group: systemic
rat [21] = conditions: Prenatal developmental toxicity study, sprague dawley, Oral, Gavage/Intubation, dose end: 5 GD, group: developmental
rat [22] = conditions: Multigenerational reproductive toxicity study, sprague dawley, Oral, Feed, dose end: 2 generation; remark: listed apart in the source
[23] = systemic / pathology microscopic / skin / inflammation
[24] = systemic / pathology microscopic / skin / inflammation + systemic / in life observation / clinical signs / desquamation + systemic / in life…
[25] = group: offspring, systemic / in life observation / body weight / offspring (pup) weight
[26] = group: offspring, systemic / in life observation / body weight / offspring (pup) weight + developmental / offspring survival late / [other] / [other]
[27] = group: parental, systemic / clinical chemistry / alkaline phosphatase (alp/alk) / alkaline phosphatase (alp/alk) + systemic / clinical chemistry / creatinine…
[28] = systemic / clinical chemistry / alanine aminotransferase (alt/sgpt) / alanine aminotransferase (alt/sgpt) + systemic / in life observation…
[29] = systemic / organ weight / liver / absolute + systemic / organ weight / liver / relative to body weight
[30] = systemic / hematology / heinz body / heinz body
[31] = systemic / hematology / heinz body / heinz body + systemic / clinical chemistry / alkaline phosphatase (alp/alk) / alkaline phosphatase (alp…
[32] = systemic / clinical chemistry / lactic acid dehydrogenase (ldh) / lactic acid dehydrogenase (ldh)
[33] = group: developmental, developmental / developmental malformation / bone / unossified + systemic / in life observation / body weight / fetal weight
[34] = group: maternal, systemic / in life observation / body weight / body weight gain + systemic / in life observation / clinical signs / scybala + systemic / in …
[35] = systemic / in life observation / body weight / body weight gain
[36] = systemic / in life observation / body weight / body weight gain + systemic / in life observation / mortality / mortality + systemic / in …
[37] = group: developmental, developmental / developmental malformation / diaphragm / diaphragmatic thinning
[38] = group: developmental, developmental / developmental malformation / diaphragm / diaphragmatic thinning + systemic / in life observation / body weight / fetal …
[39] = group: maternal, systemic / in life observation / body weight / body weight + systemic / in life observation / clinical signs / salivation + systemic / in …
[40] = systemic / pathology microscopic / eye / retinopathy
[41] = systemic / pathology microscopic / thyroid gland / adenoma/carcinoma combined + systemic / pathology microscopic / thyroid gland / carcinoma…
[42] = systemic / clinical chemistry / alanine aminotransferase (alt/sgpt) / alanine aminotransferase (alt/sgpt) + systemic / clinical chemistry / …
[43] = systemic / organ weight / ovary / absolute + systemic / organ weight / uterus / absolute
[44] = group: developmental, developmental / developmental malformation / bone / ossification sites + developmental / developmental malformation / general / [other] + …
[45] = group: maternal, systemic / in life observation / body weight / body weight gain
[46] = group: maternal, systemic / in life observation / body weight / body weight gain + reproductive / reproductive performance / postimplantation loss / …
[47] = systemic / in life observation / body weight / body weight + systemic / pathology microscopic / liver / hypertrophy
[48] = systemic / in life observation / body weight / body weight gain + systemic / organ weight / brain / absolute + systemic / pathology …
[49] = developmental / developmental malformation / bone / ossification sites + developmental / developmental malformation / general / [other] + …
[50] = group: parental, systemic / in life observation / body weight / body weight + systemic / in life observation / body weight / body weight gain + systemic / in…

Molecule `CCCCCCCCCCSCCN.Cl` [2-(Decylthio)ethanamine hydrochloride] has an LOAEL (rat [1]; [23]) of 1 mg/kg/day, an NOAEL (rat [1]; [23]) of less than 1 mg/kg/day and an LEL (rat [1]; [24]) of 1 mg/kg/day. The NEL (rat [1]; [24]) was less than 1 mg/kg/day.
`CC1(C(=O)Nc2ccc(O)c(Cl)c2Cl)CCCCC1` [Fenhexamid] gave an LEL (rat [2]; [25]) of 406 mg/kg/day, an LOAEL (rat [2]; [25]) of 406 mg/kg/day and an NEL (rat [2]; [26]) of 38.2 mg/kg/day. It also gave an NOAEL (rat [2]; [26]) of 38.2 mg/kg/day, an LEL (rat [2]; [27]) of 406 mg/kg/day and an LOAEL (rat [2]; [27]) of 406 mg/kg/day. The NEL (rat [2]; [27]) was 38.2 mg/kg/day, the NOAEL (rat [2]; [27]) was 38.2 mg/kg/day and the LEL (mouse [3]) was 807 mg/kg/day. The LOAEL (mouse [3]) was 807 mg/kg/day, the NEL (mouse [3]) was 247 mg/kg/day and the NOAEL (mouse [3]) was 247 mg/kg/day. For the same molecule, the LOAEL (rat [4]; [28]) was 904 mg/kg/day, the NOAEL (rat [4]; [28]) was 415 mg/kg/day and the LEL (rat [4]; [29]) was 202 mg/kg/day. For the same molecule, the NEL (rat [4]; [29]) was less than 202 mg/kg/day, the LEL (dog [5]) was 124 mg/kg/day and the LOAEL (dog [5]) was 124 mg/kg/day. It also gave an NEL (dog [5]) of 17.4 mg/kg/day, an NOAEL (dog [5]) of 17.4 mg/kg/day and an LEL (dog [6]; [30]) of 239 mg/kg/day. For the same molecule, the LOAEL (dog [6]; [30]) was 239 mg/kg/day, the NEL (dog [6]; [31]) was 33.9 mg/kg/day and the NOAEL (dog [6]; [31]) was 33.9 mg/kg/day. It also gave an LEL (rat [7]; [32]) of 28 mg/kg/day, an NEL (rat [7]; [32]) of less than 28 mg/kg/day and an NOAEL (rat [7]; systemic / clinical chemistry / lactic acid dehydrogenase (ldh) / lactic acid dehydrogenase (ldh) + systemic / pathology microscopic / …) of 28 mg/kg/day. For the same molecule, the LOAEL (rat [7]; systemic / pathology microscopic / intestine large / hyperplasia + systemic / pathology microscopic / spleen / hematopoietic cell …) was 292 mg/kg/day, the LEL (rabbit; [33]) was 1000 mg/kg/day and the LOAEL (rabbit; [33]) was 1000 mg/kg/day. For the same molecule, the NEL (rabbit; [33]) was 300 mg/kg/day, the NOAEL (rabbit; [33]) was 300 mg/kg/day and the LEL (rabbit; [34]) was 300 mg/kg/day. For the same molecule, the LOAEL (rabbit; [34]) was 300 mg/kg/day, the NEL (rabbit; [34]) was 100 mg/kg/day and the NOAEL (rabbit; [34]) was 100 mg/kg/day. It also gave an LEL (mouse [8]) of 3280 mg/kg/day, an LOAEL (mouse [8]) of 3280 mg/kg/day and an NEL (mouse [8]) of 266 mg/kg/day. It also gave an NOAEL (mouse [8]) of 266 mg/kg/day.
With `CN(C)C(=S)[S-].CN(C)C(=S)[S-].[Zn+2]` [Ziram] the LEL (rat [9]) was 6.9 mg/kg/day, the LOAEL (rat [9]) was 6.9 mg/kg/day and the NEL (rat [9]) was 0.7 mg/kg/day. It also gave an NOAEL (rat [9]) of 0.7 mg/kg/day, an LEL (mouse [10]) of 122 mg/kg/day and an LOAEL (mouse [10]) of 122 mg/kg/day. It also gave an NEL (mouse [10]) of less than 122 mg/kg/day, an NOAEL (mouse [10]) of less than 122 mg/kg/day and an LEL (mouse [11]; [35]) of 80 mg/kg/day. The NEL (mouse [11]; [35]) was less than 80 mg/kg/day, the LOAEL (mouse [11]; [36]) was greater than 1590 mg/kg/day and the NOAEL (mouse [11]; [36]) was no less than 1590 mg/kg/day. For the same molecule, the LEL (rat [12]; [37]) was 16 mg/kg/day, the LOAEL (rat [12]; [37]) was 16 mg/kg/day and the NEL (rat [12]; [38]) was 4 mg/kg/day. The NOAEL (rat [12]; [38]) was 4 mg/kg/day, the LEL (rat [12]; [39]) was 16 mg/kg/day and the LOAEL (rat [12]; [39]) was 16 mg/kg/day. It also gave an NEL (rat [12]; [39]) of 4 mg/kg/day, an NOAEL (rat [12]; [39]) of 4 mg/kg/day and an LEL (rat [13]) of 12.5 mg/kg/day. It also gave an LOAEL (rat [13]) greater than 25 mg/kg/day, an NEL (rat [13]) of 6.25 mg/kg/day and an NOAEL (rat [13]) of no less than 25 mg/kg/day. The LEL (rat [14]; [35]) was 31.3 mg/kg/day, the LOAEL (rat [14]; [36]) was greater than 313 mg/kg/day and the NEL (rat [14]; [36]) was 16.3 mg/kg/day. The NOAEL (rat [14]; [36]) was no less than 313 mg/kg/day, the LEL (rat [15]) was 21.4 mg/kg/day and the LOAEL (rat [15]) was 21.4 mg/kg/day. For the same molecule, the NEL (rat [15]) was 7.4 mg/kg/day, the NOAEL (rat [15]) was 7.4 mg/kg/day and the LEL (rat [16]; [40]) was 13 mg/kg/day. The NEL (rat [16]; [40]) was less than 13 mg/kg/day, the LOAEL (rat [16]; [41]) was greater than 22 mg/kg/day and the NOAEL (rat [16]; [41]) was no less than 22 mg/kg/day. For the same molecule, the LOAEL (dog [17]; [42]) was 6.6 mg/kg/day, the NOAEL (dog [17]; [42]) was 1.6 mg/kg/day and the LEL (dog [17]; [43]) was 1.9 mg/kg/day. The NEL (dog [17]; [43]) was less than 1.9 mg/kg/day, the LEL (rat [18]) was 2.5 mg/kg/day and the LOAEL (rat [18]) was 2.5 mg/kg/day. For the same molecule, the NEL (rat [18]) was less than 2.5 mg/kg/day, the NOAEL (rat [18]) was less than 2.5 mg/kg/day and the LOAEL (rat [19]; [44]) was greater than 100 mg/kg/day. For the same molecule, the NEL (rat [19]; [44]) was 12.5 mg/kg/day, the NOAEL (rat [19]; [44]) was no less than 100 mg/kg/day and the LEL (rat [19]; group: developmental, systemic / in life observation / body weight / fetal weight) was 25 mg/kg/day. For the same molecule, the LEL (rat [19]; [45]) was 12.5 mg/kg/day, the NEL (rat [19]; [45]) was less than 12.5 mg/kg/day and the LOAEL (rat [19]; [46]) was greater than 100 mg/kg/day. It also gave an NOAEL (rat [19]; [46]) of no less than 100 mg/kg/day, an LEL (mouse [20]; [47]) of 3 mg/kg/day and an NEL (mouse [20]; [47]) of less than 3 mg/kg/day. It also gave an LOAEL (mouse [20]; [48]) of 27 mg/kg/day, an NOAEL (mouse [20]; [48]) of 9 mg/kg/day and an LOAEL (rat [21]; [49]) greater than 100 mg/kg/day. It also gave an NEL (rat [21]; [49]) of 25 mg/kg/day, an NOAEL (rat [21]; [49]) of no less than 100 mg/kg/day and an LEL (rat [21]; systemic / in life observation / body weight / fetal weight) of 50 mg/kg/day. The LEL (rat [22]; [25]) was 42.7 mg/kg/day, the LOAEL (rat [22]; [25]) was 42.7 mg/kg/day and the NEL (rat [22]; [25]) was 16.7 mg/kg/day. It also gave an NOAEL (rat [22]; [25]) of 16.7 mg/kg/day, an LEL (rat [22]; [50]) of 37.5 mg/kg/day and an LOAEL (rat [22]; [50]) of 37.5 mg/kg/day. The NEL (rat [22]; [50]) was 14.8 mg/kg/day and the NOAEL (rat [22]; [50]) was 14.8 mg/kg/day.
